Measured values published in US6764858B2, “Methods for creating a compound library” (Pharmacia & Upjohn Company, priority 1999, dated 2004).

Target: T1, thrombin (Homo sapiens, UniProt P00734)
T1 construct: purchased Sigma
Assay: WaterLOGSY NMR screen of the functional genomics library against thrombin
Assay type: binding
Settings: 133 μM compound, 7 μM thrombin, 100 mM phosphate buffer, pH6.5
Description: Several proteins with known functions were used for validating the screening library. The proteins were dissolved in 100 mM phosphate buffer, pH 6.5 to make stock solutions which were further diluted and mixed with the compound mixtures to make final concentration of 5-7 μM. The concentration of compounds was about 133 μM in the final solution. The ratio of compound to protein concentrations was about 20:1.
NMR experiments for validating the functional genomics library with proteins of known functions were conducted on a Bruker Avance 600 MHz spectrometer equipped with 5 mm FISEI flow probe and Gilson 215 liquid sample handler. Binding was detected using the WaterLOGSY experiment.
The functional genomics screening library was screened against thrombin obtained from Sigma, which is one of the test proteins used for validation of the library. One assay mixture contained 133 μM of N-alpha-dansyl-DL-tryptophan cyclohexylammonium salt (DPS) and 7 μM of thrombin in 100 mM phosphate buffer, pH6.5. This mixture also contained Benzyl (S)-(−)-2-(1-pyrrolidinylcarbonyl)-1-pyrrolidinecarboxylate (ZPR), Chymostatin A (CSA), Tetrahydrofolic acid (C2F), Haloperidol (THK). Referring to FIG. 17, the reference NMR spectrum of DPS is in the top panel while the WaterLOGSY spectrum of the mixture is shown in the bottom panel. The positive peak in the WaterLOGSY spectrum indicates binding of DPS to thrombin. […]

Q: `CN(C)c1cccc2c(S(=O)(=O)NC(Cc3c[nH]c4ccccc34)C(=O)O)cccc12.NC1CCCCC1` (racemic) [DPS, N-alpha-dansyl-DL-tryptophan cyclohexylammonium salt] was tested. Which “binding to thrombin (positive peak in WaterLOGSY spectrum)” value did it give?
A: binding
